Results from paper PMC5931107, “Clinical pharmacodynamic/exposure characterisation of the multikinase inhibitor ilorasertib (ABT-348) in a phase 1 dose-escalation trial” (British Journal of Cancer, 2018).
Where two headings read alike, the source gives them in different places.

Key:
PDGFR-β = test system: PDGFR-β; design: method as in PMID 22935731; conditions: 1 mM ATP; read-out: Biochemical IC50 (95% confidence limits); cited from earlier work
VEGFR2 = test system: VEGFR2; design: method as in PMID 22935731; conditions: cited from earlier work
Aurora B [1] = test system: Aurora B; design: method as in PMID 22935731; conditions: Aurora B autophosphorylation, nocodazole-arrested HeLa cells; read-out: Cellular PD marker IC50 (95% confidence limits); cited from earlier work
[2] = Safety: treatment-emergent adverse events (CTCAE v4.0), phase 1 trial; assay type: in vivo, human
Protocol: Safety was assessed on the basis of AEs, physical examination, vital signs, electrocardiograms, multiple-gated acquisition scans, and clinical laboratory test assessments. AEs were graded using National Cancer Institute CTCAE version 4.0.
Descriptive statistics were used for demographic variables. The numbers and percentages of patients with treatment-emergent AEs (TEAEs) were tabulated using the Medical Dictionary for Regulatory Activities version 16.0 system organ class and preferred term, and further classified according to CTCAE version 4.0 criteria. The safety data set included all patients who received one or more doses of ilorasertib. The pharmacokinetic data set included all patients who received one or more doses of ilorasertib and had one or more pharmacokinetic samples. Values for pharmacokinetic parameters were determined using non-compartmental methods, with data analysed separately for each arm. A repeated measures analysis was performed for Tmax and dose-normalised Cmax, AUCt, and AUC∞. The model included random effects for patient and fixed effects for dose level, day, and the interaction of dose level and day. To assess effects of exposure on pharmacodynamic biomarkers, Cmax was employed as the directly measured marker of exposure for the rapid changes in DBP and PlGF pre-steady-state, while AUC∞ reflected exposure variability at the time of post-multiple-dose skin biopsy. Descriptive statistics were used to summarise ECOG performance status. The efficacy data set included all patients who received one or more doses of ilorasertib.

Aurora B [3] = test system: Aurora B; design: method as in PMID 22935731; conditions: 1 mM ATP; read-out: Biochemical IC50 (95% confidence limits); cited from earlier work
VEGFR3 = test system: VEGFR3; design: method as in PMID 22935731; conditions: read-out: Cellular PD marker IC50 (95% confidence limits); cited from earlier work
[4] = test system: TEL:VEGFR1 catalytic domain fusion; design: method as in PMID 22935731; conditions: BaF3 cells expressing TEL:VEGFR1, proliferation as surrogate readout; read-out: Cellular PD marker IC50 (95% confidence limits); cited from earlier work
[5] = design: method as in PMID 25933833; conditions: doses above 80 mg PO; data from haematologic malignancies study i.v. arm; cited from earlier work

Nc1ncc(-c2cnn(CCO)c2)c2scc(-c3ccc(NC(=O)Nc4cccc(F)c4)cc3)c12 [ilorasertib, Ilorasertib]
IC50 (VEGFR2; VEGFR2 cellular phosphorylation, ligand stimulated, read-out: Cellular PD marker IC50 (95% confidence limits)): 5 nM
Potency of VEGFR2 inhibition relative to Aurora kinase B (VEGFR2; cellular assays): two- to five-fold more potent
Any grade AE, patients n (%) ([2]; Arm I PO QD, N = 23): 22 (96)
Constipation, any grade TEAE, patients n (%) ([2]; Arm I PO QD, N = 23): 6 (26)
Decreased appetite, any grade TEAE, patients n (%) ([2]; Arm I PO QD, N = 23): 8 (35)
Diarrhoea, any grade TEAE, patients n (%) ([2]; Arm I PO QD, N = 23): 5 (22)
Diarrhoea, grade 3 or 4 TEAE, patients n (%) ([2]; Arm I PO QD, N = 23): 1 (4)
Dyspnoea, any grade TEAE, patients n (%) ([2]; Arm I PO QD, N = 23): 2 (9)
Grade 3 or 4 AE, patients n (%) ([2]; Arm I PO QD, N = 23): 14 (61)
Headache, any grade TEAE, patients n (%) ([2]; Arm I PO QD, N = 23): 5 (22)
Hypertension, any grade TEAE, patients n (%) ([2]; Arm I PO QD, N = 23): 8 (35)
Hypertension, grade 3 or 4 TEAE, patients n (%) ([2]; Arm I PO QD, N = 23): 4 (17)
Hypokalaemia, any grade TEAE, patients n (%) ([2]; Arm I PO QD, N = 23): 3 (13)
Hypomagnesaemia, any grade TEAE, patients n (%) ([2]; Arm I PO QD, N = 23): 3 (13)
Nausea, any grade TEAE, patients n (%) ([2]; Arm I PO QD, N = 23): 8 (35)
Neutropenia, grade 3 or 4 TEAE, patients n (%) ([2]; Arm I PO QD, N = 23): 0
Thrombocytopenia, any grade TEAE, patients n (%) ([2]; Arm I PO QD, N = 23): 3 (13)
Urinary tract infection, any grade TEAE, patients n (%) ([2]; Arm I PO QD, N = 23): 2 (9)
Vomiting, any grade TEAE, patients n (%) ([2]; Arm I PO QD, N = 23): 3 (13)
Any grade AE, patients n (%) ([2]; Arm II PO BID, N = 28): 27 (96)
Constipation, any grade TEAE, patients n (%) ([2]; Arm II PO BID, N = 28): 5 (18)
Decreased appetite, any grade TEAE, patients n (%) ([2]; Arm II PO BID, N = 28): 9 (32)
Diarrhoea, any grade TEAE, patients n (%) ([2]; Arm II PO BID, N = 28): 8 (29)
Diarrhoea, grade 3 or 4 TEAE, patients n (%) ([2]; Arm II PO BID, N = 28): 1 (4)
Dyspnoea, any grade TEAE, patients n (%) ([2]; Arm II PO BID, N = 28): 3 (11)
Fatigue, any grade TEAE, patients n (%) ([2]; Arm II PO BID, N = 28): 14 (50)
Grade 3 or 4 AE, patients n (%) ([2]; Arm II PO BID, N = 28): 15 (54)
Headache, any grade TEAE, patients n (%) ([2]; Arm II PO BID, N = 28): 4 (14)
Hypertension, any grade TEAE, patients n (%) ([2]; Arm II PO BID, N = 28): 9 (32)
Hypertension, grade 3 or 4 TEAE, patients n (%) ([2]; Arm II PO BID, N = 28): 4 (14)
Hypokalaemia, any grade TEAE, patients n (%) ([2]; Arm II PO BID, N = 28): 3 (11)
Hypomagnesaemia, any grade TEAE, patients n (%) ([2]; Arm II PO BID, N = 28): 3 (11)
Nausea, any grade TEAE, patients n (%) ([2]; Arm II PO BID, N = 28): 5 (18)
Neutropenia, grade 3 or 4 TEAE, patients n (%) ([2]; Arm II PO BID, N = 28): 2 (7)
Thrombocytopenia, any grade TEAE, patients n (%) ([2]; Arm II PO BID, N = 28): 5 (18)
Urinary tract infection, any grade TEAE, patients n (%) ([2]; Arm II PO BID, N = 28): 5 (18)
Vomiting, any grade TEAE, patients n (%) ([2]; Arm II PO BID, N = 28): 8 (29)
Any grade AE, patients n (%) ([2]; Arm III i.v., N = 7): 7 (100)
Constipation, any grade TEAE, patients n (%) ([2]; Arm III i.v., N = 7): 2 (29)
Decreased appetite, any grade TEAE, patients n (%) ([2]; Arm III i.v., N = 7): 3 (43)
Diarrhoea, any grade TEAE, patients n (%) ([2]; Arm III i.v., N = 7): 2 (29)
Diarrhoea, grade 3 or 4 TEAE, patients n (%) ([2]; Arm III i.v., N = 7): 0
Dyspnoea, any grade TEAE, patients n (%) ([2]; Arm III i.v., N = 7): 2 (29)
Fatigue, any grade TEAE, patients n (%) ([2]; Arm III i.v., N = 7): 1 (14)
Grade 3 or 4 AE, patients n (%) ([2]; Arm III i.v., N = 7): 3 (43)
Headache, any grade TEAE, patients n (%) ([2]; Arm III i.v., N = 7): 0
Hypertension, any grade TEAE, patients n (%) ([2]; Arm III i.v., N = 7): 3 (43)
Hypertension, grade 3 or 4 TEAE, patients n (%) ([2]; Arm III i.v., N = 7): 2 (29)
Hypokalaemia, any grade TEAE, patients n (%) ([2]; Arm III i.v., N = 7): 0
Hypomagnesaemia, any grade TEAE, patients n (%) ([2]; Arm III i.v., N = 7): 0
Nausea, any grade TEAE, patients n (%) ([2]; Arm III i.v., N = 7): 2 (29)
Neutropenia, grade 3 or 4 TEAE, patients n (%) ([2]; Arm III i.v., N = 7): 0
Thrombocytopenia, any grade TEAE, patients n (%) ([2]; Arm III i.v., N = 7): 0
Urinary tract infection, any grade TEAE, patients n (%) ([2]; Arm III i.v., N = 7): 2 (29)
Vomiting, any grade TEAE, patients n (%) ([2]; Arm III i.v., N = 7): 1 (14)
Any grade AE, patients n (%) ([2]; Total, N = 58): 56 (97)
Decreased appetite, any grade TEAE, patients n (%) ([2]; Total, N = 58): 20 (34)
Diarrhoea, any grade TEAE, patients n (%) ([2]; Total, N = 58): 15 (26)
Diarrhoea, grade 3 or 4 TEAE, patients n (%) ([2]; Total, N = 58): 2 (3)
Dyspnoea, any grade TEAE, patients n (%) ([2]; Total, N = 58): 7 (12)
Fatigue, any grade TEAE, patients n (%) ([2]; Total, N = 58): 28 (48)
Grade 3 or 4 AE, patients n (%) ([2]; Total, N = 58): 32 (55)
Headache, any grade TEAE, patients n (%) ([2]; Total, N = 58): 9 (16)
Hypertension, any grade TEAE, patients n (%) ([2]; Total, N = 58): 20 (34)
Hypertension, grade 3 or 4 TEAE, patients n (%) ([2]; Total, N = 58): 10 (17)
Hypokalaemia, any grade TEAE, patients n (%) ([2]; Total, N = 58): 6 (10)
Hypomagnesaemia, any grade TEAE, patients n (%) ([2]; Total, N = 58): 6 (10)
Nausea, any grade TEAE, patients n (%) ([2]; Total, N = 58): 15 (26)
Neutropenia, grade 3 or 4 TEAE, patients n (%) ([2]; Total, N = 58): 2 (3)
Thrombocytopenia, any grade TEAE, patients n (%) ([2]; Total, N = 58): 8 (14)
Urinary tract infection, any grade TEAE, patients n (%) ([2]; Total, N = 58): 9 (16)
Grade 3 or 4 TEAE diarrhoea, patients ([2]; all 58 patients): 3%
Grade 3 or 4 TEAE hypertension, patients ([2]; all 58 patients): 17%
Grade 3 or 4 TEAE neutropenia, patients ([2]; all 58 patients): 3%
Patients with TEAEs ([2]; all 58 patients): 97%
Patients with TEAEs considered possibly or probably related to ilorasertib ([2]; all 58 patients): 66%
Patients with TEAEs that led to discontinuation ([2]; all 58 patients): 17%
Patients with grade 3 or 4 TEAEs ([2]; all 58 patients): 55%
Patients with treatment-emergent serious AEs ([2]; all 58 patients): 36%
Patients with treatment-related grade 3 or 4 TEAEs ([2]; all 58 patients): 28%
Serious AE fatigue, patients ([2]; all 58 patients): 3%
Serious AE small intestinal obstruction, patients ([2]; all 58 patients): 7%
TEAE constipation, patients ([2]; all 58 patients): 22%
TEAE decreased appetite (anorexia), patients ([2]; all 58 patients): 34%
TEAE diarrhoea, patients ([2]; all 58 patients): 26%
TEAE fatigue, patients ([2]; all 58 patients): 48%
TEAE hypertension, patients ([2]; all 58 patients): 34%
TEAE nausea, patients ([2]; all 58 patients): 26%
Treatment-related TEAE decreased appetite, patients ([2]; all 58 patients): 19%
Treatment-related TEAE diarrhoea, patients ([2]; all 58 patients): 14%
Treatment-related TEAE fatigue, patients ([2]; all 58 patients): 24%
Treatment-related TEAE hypertension, patients ([2]; all 58 patients): 29%
Treatment-related TEAE nausea, patients ([2]; all 58 patients): 17%
Treatment-related TEAE thrombocytopenia, patients ([2]; all 58 patients): 14%
Treatment-related TEAE vomiting, patients ([2]; all 58 patients): 10%
Treatment-related grade 3 or 4 diarrhoea, patients ([2]; all 58 patients): 3%
Treatment-related grade 3 or 4 hypertension, patients ([2]; all 58 patients): 14%
Treatment-related grade 3 or 4 neutropenia, patients ([2]; all 58 patients): 3%
Relatedness of deaths to ilorasertib (investigator) ([2]; in vivo): none of the deaths were considered related to ilorasertib
Deaths resulting from TEAEs ([2]; one patient in Arm I, two in Arm II, within 30 days of discontinuing the study): three patients
IC50 (VEGFR3): 2 nM
IC50 [4]: 0.3 nM
